For orientation: IC50 means the midpoint of a concentration-inhibition curve.

SHP2, sequence (Q06124 whole entry): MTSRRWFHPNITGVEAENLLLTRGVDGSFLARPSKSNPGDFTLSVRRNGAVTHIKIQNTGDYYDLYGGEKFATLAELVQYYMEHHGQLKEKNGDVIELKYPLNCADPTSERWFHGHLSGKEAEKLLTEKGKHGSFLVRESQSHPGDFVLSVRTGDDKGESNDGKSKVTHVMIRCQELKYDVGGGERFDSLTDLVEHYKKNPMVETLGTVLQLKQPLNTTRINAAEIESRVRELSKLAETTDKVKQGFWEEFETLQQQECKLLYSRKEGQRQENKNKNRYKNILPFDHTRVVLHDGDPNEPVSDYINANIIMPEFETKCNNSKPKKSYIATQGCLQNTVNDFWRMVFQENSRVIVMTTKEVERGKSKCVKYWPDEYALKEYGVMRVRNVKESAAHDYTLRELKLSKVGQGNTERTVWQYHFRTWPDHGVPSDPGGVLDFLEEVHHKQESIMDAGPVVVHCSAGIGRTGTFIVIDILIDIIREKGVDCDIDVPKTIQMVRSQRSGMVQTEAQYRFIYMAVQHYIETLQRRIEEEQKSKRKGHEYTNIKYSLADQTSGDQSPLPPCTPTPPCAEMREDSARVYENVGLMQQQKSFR

This test concerns the target SHP2 (Homo sapiens (Human), UniProt Q06124). As to the kind of experiment: SHP2 Allosteric Inhibition Assay (DiFMUP prompt fluorescence). The class given is biochemical. The settings on record: 0.25 nM SHP2 activated with 0.5 μM peptide IRS1_pY1172(dPEG8)pY1222; substrate DiFMUP 100 μM; 25° C.
With `C[C@@H]1OCC2(CCN(c3cnc4c(N5CCN(S(C)(=O)=O)c6ccccc65)n[nH]c4n3)CC2)[C@@H]1N` [Compound 325], the IC50 was below 1000 nM.

Turning to `C[C@@H]1OCC2(CCN(c3cnc4c(N5CC[C@@H](C(F)F)c6cc(C#N)ccc65)n[nH]c4n3)CC2)[C@@H]1N` [Compound 326], the IC50 is below 1000 nM.

Compound `C[C@@H]1OCC2(CCN(c3cnc4c(N5CC[C@H](C(F)F)c6cc(C#N)ccc65)n[nH]c4n3)CC2)[C@@H]1N` [Compound 327] yielded a half-inhibitory concentration (IC50) below 1000 nM.

Consider `Cc1coc(-c2ccc3c(n2)CCCN3c2n[nH]c3nc(N4CCC5(CC4)CO[C@@H](C)[C@H]5N)cnc23)n1` [Compound 328], for which the IC50 was below 1000 nM.

In turn, `CNC(=O)c1ccc2c(c1)NCCN2c1n[nH]c2nc(N3CCC4(CC3)CO[C@@H](C)[C@H]4N)cnc12` [Compound 329, 1-{6-[(3S,4S)-4-amino-3-methyl-2-oxa-8-azaspiro[4.5]decan-8-yl]-1H-pyrazolo[3,4-b]pyrazin-3-yl}-N-methyl-1,2,3,4-tetrahydroquinoxaline-6-carboxamide] had an IC50 below 1000 nM.

Compound `Cc1cccc2c1CCCN2c1n[nH]c2nc(N3CCC4(CC3)CO[C@@H](C)[C@H]4N)cnc12` [Compound 330] yielded an IC50 below 1000 nM.

Regarding `CNC(=O)N1CCN(c2n[nH]c3nc(N4CCC5(CC4)CO[C@@H](C)[C@H]5N)cnc23)c2cccnc21` [Compound 331, 1-{6-[(3S,4S)-4-amino-3-methyl-2-oxa-8-azaspiro[4.5]decan-8-yl]-1H-pyrazolo[3,4-b]pyrazin-3-yl}-N-methyl-1H,2H,3H,4H-pyrido[2,3-b]pyrazine-4-carboxamide], the IC50 was below 1000 nM.

With `C[C@@H]1OCC2(CCN(c3cnc4c(N5CCNc6cc(-c7ccnnc7)ccc65)n[nH]c4n3)CC2)[C@@H]1N` [Compound 332], the IC50 was below 1000 nM.

Turning to `COCCn1cc(-c2ccc3c(n2)CCCN3c2n[nH]c3nc(N4CCC5(CC4)CO[C@@H](C)[C@H]5N)cnc23)cn1` [Compound 333, (3S,4S)-8-(3-{6-[1-(2-methoxyethyl)-1H-pyrazol-4-yl]-1,2,3,4-tetrahydro-1,5-naphthyridin-1-yl}-1H-pyrazolo[3,4-b]pyrazin-6-yl)-3-methyl-2-oxa-8-azaspiro[4.5]decan-4-amine], the IC50 was below 1000 nM.

On to `CCn1cc(-c2ccc3c(n2)CCCN3c2n[nH]c3nc(N4CCC5(CC4)CO[C@@H](C)[C@H]5N)cnc23)cn1` [Compound 334, (3S,4S)-8-{3-[6-(1-ethyl-1H-pyrazol-4-yl)-1,2,3,4-tetrahydro-1,5-naphthyridin-1-yl]-1H-pyrazolo[3,4-b]pyrazin-6-yl}-3-methyl-2-oxa-8-azaspiro[4.5]decan-4-amine], for which the half-maximal inhibitory concentration (IC50) was below 1000 nM.

With `C[C@@H]1OCC2(CCN(c3cnc4c(N5CCCc6c5ccnc6C(N)=O)n[nH]c4n3)CC2)[C@@H]1N` [Compound 335, 1-{6-[(3S,4S)-4-amino-3-methyl-2-oxa-8-azaspiro[4.5]decan-8-yl]-1H-pyrazolo[3,4-b]pyrazin-3-yl}-1,2,3,4-tetrahydro-1,6-naphthyridine-5-carboxamide], the IC50 was below 1000 nM.

In turn, `C[C@@H]1OCC2(CCN(c3cnc4c(N5CCCc6nc(C7=CCOC7)ccc65)n[nH]c4n3)CC2)[C@@H]1N` [Compound 336] registered an IC50 below 1000 nM.

Take `C[C@@H]1OCC2(CCN(c3cnc4c(N5CCc6ccc(-c7cnn(C)c7)cc6C5)n[nH]c4n3)CC2)[C@@H]1N` [Compound 337]: the IC50 was below 1000 nM.

As to `C[C@@H]1OCC2(CCN(c3cnc4c(N5CCc6cc(-c7cnn(C)c7)ccc6C5)n[nH]c4n3)CC2)[C@@H]1N` [Compound 338], the IC50 is below 1000 nM.

In turn, `N[C@@H]1CCC12CCN(c1cnc3c(N4CCCc5ncccc54)n[nH]c3n1)CC2` [Compound 339, (1R)-7-[3-(1,2,3,4-tetrahydro-1,5-naphthyridin-1-yl)-1H-pyrazolo[3,4-b]pyrazin-6-yl]-7-azaspiro[3.5]nonan-1-amine] yielded an IC50 below 1000 nM.

As for `N[C@H]1CCC12CCN(c1cnc3c(N4CCCc5ncccc54)n[nH]c3n1)CC2` [Compound 340, (1S)-7-[3-(1,2,3,4-tetrahydro-1,5-naphthyridin-1-yl)-1H-pyrazolo[3,4-b]pyrazin-6-yl]-7-azaspiro[3.5]nonan-1-amine], the IC50 was below 1000 nM.

Compound `C[C@@H]1OCC2(CCN(c3cnc4c(N5CCS(=O)(=O)c6ccccc65)n[nH]c4n3)CC2)[C@@H]1N` [Compound 341] had an IC50 below 1000 nM.

As for `CNC(=O)N1CCN(c2n[nH]c3nc(N4CCC5(CC4)CO[C@@H](C)[C@H]5N)cnc23)c2ccccc21` [Compound 342], the IC50 was below 1000 nM.

`C[C@@H]1OCC2(CCN(c3cnc4c(N5CCCc6c(NS(C)(=O)=O)cccc65)n[nH]c4n3)CC2)[C@@H]1N` [Compound 343, N-(1-{6-[(3S,4S)-4-amino-3-methyl-2-oxa-8-azaspiro[4.5]decan-8-yl]-1H-pyrazolo[3,4-b]pyrazin-3-yl}-1,2,3,4-tetrahydroquinolin-5-yl)methanesulfonamide]: the IC50 was below 1000 nM.

Turning to `C[C@@H]1OCC2(CCN(c3cnc4c(N5CCCc6c5cccc6N(S(C)(=O)=O)S(C)(=O)=O)n[nH]c4n3)CC2)[C@@H]1N` [Compound 344, N-(1-{6-[(3S,4S)-4-amino-3-methyl-2-oxa-8-azaspiro[4.5]decan-8-yl]-1H-pyrazolo[3,4-b]pyrazin-3-yl}-1,2,3,4-tetrahydroquinolin-5-yl)-N-methanesulfonylmethanesulfonamide], the IC50 is below 1000 nM.

As to `Cc1ccc2c(c1S(C)(=O)=O)CCCN2c1n[nH]c2nc(N3CCC4(CC3)CO[C@@H](C)[C@H]4N)cnc12` [Compound 345], the IC50 is below 1000 nM.

For `C[C@@H]1CCN(c2n[nH]c3nc(N4CCC5(CC4)CO[C@@H](C)[C@H]5N)cnc23)c2ccc(C(=O)N(C)C)nc21` [Compound 347, (8R)-5-{6-[(3S,4S)-4-amino-3-methyl-2-oxa-8-azaspiro[4.5]decan-8-yl]-1H-pyrazolo[3,4-b]pyrazin-3-yl}-N,N,8-trimethyl-5,6,7,8-tetrahydro-1,5-naphthyridine-2-carboxamide], the IC50 is below 1000 nM.

Take `C[C@@H]1OCC2(CCN(c3cnc4c(N5CCCc6nc(-c7cccnn7)ccc65)n[nH]c4n3)CC2)[C@@H]1N` [Compound 348]: the IC50 is below 1000 nM.

The compound `C[C@@H]1OCC2(CCN(c3cnc4c(N5CCCc6nc(-c7cnccn7)ccc65)n[nH]c4n3)CC2)[C@@H]1N` [Compound 350] returned an IC50 below 1000 nM.

Take `C[C@@H]1OCC2(CCN(c3cnc4c(N5CCCc6nc(-c7cnn(CCO)c7)ccc65)n[nH]c4n3)CC2)[C@@H]1N` [Compound 351, 2-[4-(5-{6-[(3S,4S)-4-amino-3-methyl-2-oxa-8-azaspiro[4.5]decan-8-yl]-1H-pyrazolo[3,4-b]pyrazin-3-yl}-5,6,7,8-tetrahydro-1,5-naphthyridin-2-yl)-1H-pyrazol-1-yl]ethan-1-ol]: the IC50 is below 1000 nM.

In turn, `C[C@@H]1OCC2(CCN(c3cnc4c(N5CCCc6nc(CC#N)ccc65)n[nH]c4n3)CC2)[C@@H]1N` [Compound 352] registered an IC50 below 1000 nM.

The compound `Cc1nnc(-c2ccc3c(c2)[C@@H](C)CCN3c2n[nH]c3nc(N4CCC5(CC4)CO[C@@H](C)[C@H]5N)cnc23)o1` [Compound 353] registered an IC50 below 1000 nM.

In turn, `Cc1ccc2c(c1)CCCN2c1n[nH]c2nc(N3CCC4(CC3)CO[C@@H](C)[C@H]4N)cnc12` [Compound 354] had an IC50 below 1000 nM.

`C[C@@H]1OCC2(CCN(c3cnc4c(N5CCCc6ccccc65)n[nH]c4n3)CC2)[C@@H]1N` [Compound 355] had an IC50 below 1000 nM.
